These results are taken from patent publication US5679645A, “Sialic acid powder and process for the preparation thereof” (Snow Brand Milk Products Co., Ltd., priority 1993, dated 1997).

Data set [1] is described as follows: Time for complete dissolution in methanol suspension with Dowex 50. The format is physicochemical. Here is the method: A suspension of 10 g of Dowex 50 (trademark, manufactured by Dow Chemical; H+-type, 100-200 mesh, washed with hot methanol) in 100 ml of methanol was prepared. 10 g of Amorphous Powder 1--1, Needles 1--1, or Prisms 1--1 prepared in Example 1 was each charged to the suspension at 25° C. while vigorously stirring. While continuing the stirring at 25° C., the mixture was sampled from time to time to measure the time required for the sialic acids to be dissolved completely to form a clear solution, the degree of reaction, and the final reaction yield. The reaction yield was calculated by HPLC (HPX-87H column, trademark, manufactured by Bio Rad Co.).

A short description of data set [2]: Water content of sialic acid powders (Table 1, comparison of properties). The class given is physicochemical. To be noted: for Water content: Table 1.
Data set [3] is described as follows: Relationship between freezing rate and properties of the freeze-dried powder (degree of crystallization, water content; Table 2). The class given is physicochemical. The settings on record: 40% by weight aqueous solution. Here is the method:
Relationship between the freezing rate of a sialic acid aqueous solution and properties of the ultimate product was studied. 40% by weight aqueous solution of sialic acids was used and frozen for different periods of time using liquid nitrogen, a cooling shelf, and a freezer, and freeze-dried for 4 days. The degree of crystallization and the water content were measured.

Data set [4] in a line: Solubility in water and organic solvents (statement).
[5] abbreviates: 10 g in 100 ml methanol with 10 g Dowex 50 (H+), 25° C., stirring.
[6] abbreviates: time for freezing 1 minute or shorter.
The mark [7] stands for this setting: time for freezing 5 minute or shorter.
[8] abbreviates: time for freezing 10 minute or shorter.
Where [9] appears, read: time for freezing 30 minute or shorter.
[10] abbreviates: time for freezing 1 hour or shorter.
The mark [11] stands for this setting: time for freezing 3 hours or shorter.

Where only a bound is given, the exact number is not on record here.

Regarding `CC(=O)N[C@H]1[C@H]([C@H](O)[C@H](O)CO)OC(O)(C(=O)O)C[C@@H]1O` (some centres unmarked) [Needles 1-1, sialic acid], the “Time required for complete dissolution” value in data set [1] (setting [5]) came out at 27 min. Moreover, the Water content in data set [2] is listed as 2.1%.
For `CC(=O)N[C@H]1[C@H]([C@H](O)[C@H](O)CO)OC(O)(C(=O)O)C[C@@H]1O` (some centres unmarked) [freeze-dried powder, sialic acid], the Crystallization degree in data set [3] (setting [6]) is 0%; in data set [3] (setting [7]), > 0.1%; in data set [3] (setting [8]), 0.2-0.4%; in data set [3] (setting [9]) it was 1.8-2.3%; in data set [3] (setting [10]), 9.8-15.1%; in data set [3] (setting [11]), 26-35%. Besides, the Water content in data set [3] (setting [6]) is listed as 1.1-1.7%; in data set [3] (setting [7]), 1.2-1.9%; in data set [3] (setting [8]), 1.4-2.1%; in data set [3] (setting [9]), 2.4-3.6%; in data set [3] (setting [10]) it was 3.9-4.8%; in data set [3] (setting [11]), 5.1-6.2%.
With `CC(=O)N[C@H]1[C@H]([C@H](O)[C@H](O)CO)OC(O)(C(=O)O)C[C@@H]1O` (some centres unmarked) [Amorphous Powder 1-1, sialic acid], in data set [1] (setting [5]), the “Time required for complete dissolution” value came out at 6 min and the “Time required for complete dissolution (in words)” value is reported as “dissolved fastest”. In data set [2], this compound gave a Water content of 2.2%.
Regarding `CC(=O)N[C@H]1[C@H]([C@H](O)[C@H](O)CO)OC(O)(C(=O)O)C[C@@H]1O` (some centres unmarked) [sialic acid], the “Solubility in organic solvents and reactivity (in words)” value in data set [4] (compared with needles) was “superiority to such sialic acid needles, in terms of solubility in organic solvents and the reactivity”. In addition, in data set [4] (compared with needles and prisms), the “Solubility in water (in words)” value was “more excellent in its solubility in water than both the needles and the prisms”. Moreover, in data set [2] (compared with needles), the “Water content (in words)” value is “very close to those of needles”.
As to `CC(=O)N[C@H]1[C@H]([C@H](O)[C@H](O)CO)OC(O)(C(=O)O)C[C@@H]1O` (some centres unmarked) [Prisms 1-1, sialic acid], the “Complete dissolution after 5 hours (in words)” value in data set [1] (methanol with Dowex 50, 25° C., 5 hours) is “did not completely dissolved”. The compound further showed a Water content in data set [2] of 10.9%. Besides, in data set [2] (stated in discussion of Table 3), the “Crystal water contained in the powder” value is given as “about 10%”.
